In patent EP2246037A2, “Anti-aging and whitening properties of quercetin, 18a-glycyrrhetinic acid, hederagenin and its derivatives” (Korres S.A. Natural Products, priority 2009, dated 2010):

Key:
[1] = system: HFL-1 human diploid fibroblasts; assay: β-galactosidase activity staining of continuously treated fibroblasts; type: cell-based
Description: The steps, methods and results that were obtained regarding the anti-aging properties of the examined substances are the following: • 1) Study of the lifespan of human diploid fibroblasts in vitro in the presence of the substances. • 1.1. HFL-1 human diploid fibroblasts (HDFs) were used in in vitro conditions (growth at 37°C, 5% CO2 and 95% humidity). • 1.2. The cells were maintained in Dulbecco's modified Eagle's medium (DMEM ®; Invitrogen Life Technologies Inc.) supplemented with 10% (v/v) fetal calf serum, 100 Units/ml penicillin, 100 µg/ml strepromycin, 2 mM glutamine and 1% (v/v) non-essential amino acids (complete medium). • 1.3. The cells were constantly cultured in culture medium supplemented with the substances [final concentration for quercetin (QUER), 18α-glycyrrhetinic acid (18α GA), and hederagenin (HED): 2 µg/ml and for quercetin caprylate (QU-CAP) three concentrations were applied: 0.5, 2 and 5 µg/ml]. Quercetin, 18α-glycyrrhetinic acid and hederagenin were diluted in DMSO (dimethyl sulfoxide) whereas quercetin caprylate was diluted in caprilic/capric triglycerides (CAP). Therefore, the control cultures were incubated in medium supplemented with 0.1% DMSO or 0.1% CAP. • 1.4. The cells were replenished with fresh media supplemented with the substances or the diluents every 24 h and their numbers were examined using a Coulter Z2 ® counter (Coulter Corporation) until they reached senescence (approximately after 13 weeks). The cumulative population doublings performed by each culture were calculated using the following formula: CPD=Σ[PD] where PD=LOG[Nfinal/Ninitial]/LOG[2], where N final represents the number of cells that were measured when each culture reached confluence and N initial represents the number of cells that was initially seeded. • 1.5. Photographs of the cells maintained in cell culture and treated with the various substances for the same time period were taken. • 1.6. […] More specifically, cells that were incubated with quercetin caprylate gave up to 2.8% more population doublings as compared to the population doublings performed by the relative control cultures. Cells that were incubated with the other substances gave up to 2.9% more population doublings as compared to their relative control cultures. • 1.7. […] Cells that were treated with either of the tested substances maintained the young morphology for longer as compared to the control cultures (DMSO-treated and CAP-treated). […] Briefly, 10^5 cells from each culture were seeded in 6-well plates. After 24 h cells were washed with PBS (phosphate buffered saline), fixed in 0.2% glutaraldehyde and 2% formaldehyde for 5 min, washed again with PBS, and finally stained for 24 h at 37 °C in the absence of CO2, in staining solution (150 mM NaCl, 2 mM MgCl2, 5 mM K3Fe(CN)6, 40 mM citric acid, and 12 mM sodium phosphate, pH 6.0) containing 1 mg/ml 5-bromo-4-chloro-3-indolyl-β-D-galactoside. Photographs were then taken. • 1.3. […] HFL-1 HDFs that have senesced in vitro were used (growth at 37°C, 5% CO2 and 95% humidity). More specifically, middle aged HFL-1 HDFs (cpd 59) and terminally senescent HFL-1 HDFs (cpd 65) that had senesced in the absence of any substance were used. • 3.2. The cells were seeded and maintained in complete medium (see 1.2). Culture medium supplemented with the substances [final concentration for quercetin (QUER), 18α-glycyrrhetinic acid (18α GA), and hederagenin (HED): 2 µg/ml and for quercetin caprylate (QU-CAP) three concentrations were applied: 0.5, 2 and 5 µg/ml] or the diluents (0.1% DMSO or 0.1% CAP) were added 24 h later. The cells were replenished with fresh media supplemented with the substances or the diluents every 24 h for 1 week and their numbers were then examined using a Coulter Z2 ® counter (Coulter Corporation). • 3.3. Detection of β-galactosidase activity was performed in these cells as described above and photographs of the cells following β-galactosidase activity assay were taken. • 3.4. […]

[2] = system: Mouse melanocytes (B10F16 cell line); assay: Cellular whitening of melanocytes (cell pellet photographs); type: cell-based; conditions: 72 h
Description: The steps, methods and results that were obtained regarding the whitening properties of the examined substances are the following: • A) Cellular whitening of melanocytes. • A.1. Mouse melanocytes (B10F16 cell line) were used in in vitro conditions (growth at 37°C, 5% CO2 and 95% humidity). • A.2. The cells were maintained in Dulbecco's modified Eagle's medium (DMEM®; Invitrogen Life Technologies Inc.) supplemented with 10% (v/v) fetal calf serum, 100 Units/ml penicillin, 100 µg/ml strepromycin, 2 mM glutamine and 1% (v/v) non-essential amino acids (complete medium). • A.3. 10^5 cells were seeded in petri dishes and the following day they were fed with medium supplemented with the substances [final concentration for all substances: 5 µg/ml and 10 µg/ml]. Quercetin (QUER), 18α-glycyrrhetinic acid (18α GA) and hederagenin (HED) were diluted in DMSO whereas quercetin caprylate was diluted in caprilic/capric triglycerides (CAP). Therefore, the control cultures were incubated in medium supplemented with 0.1% DMSO or 0.1% CAP. The media were replenished every 24 h and the cells were kept under these conditions constantly for 72 h. Cells were then collected and pelleted and the cell pellet was photographed. • A.4. […] The result was positively correlated to the concentration of quercetin used. • B) Detection of tyrosinase expression. • B.1. Mouse melanocytes were cultured as described in A.1.-A.3. After 72 h of treatment, the cells were collected, lysed and proteins were extracted and subjected to SDS-PAGE followed by immunoblot analysis against tyrosinase. Protein concentrations were determined using the Bradford method with BSA as a standard. • B.2.
Photographs of pellet of melanocytes that were treated with the substances for 72 h.

CC1(C)CC[C@]2(C(=O)O)CC[C@]3(C)C(=CC[C@@H]4[C@@]5(C)CC[C@H](O)[C@@](C)(CO)[C@@H]5CC[C@]43C)[C@@H]2C1 [Hederagenin]
% β-galactosidase positive cells ([1]; 2 µg/ml): 31.8%
whitening of melanocyte pellet ([2]; lower concentration (5 µg/ml)): whitening potential

O=c1c(O)c(-c2ccc(O)c(O)c2)oc2cc(O)cc(O)c12 [Quercetin]
% β-galactosidase positive cells ([1]; 2 µg/ml): 13.5%
whitening effect compared to the other substances ([2]; 5 µg/ml and 10 µg/ml): notably more intensed
whitening of melanocyte pellet ([2]; both concentrations (5 µg/ml and 10 µg/ml)): whitening potential

CC1(C)[C@@H](O)CC[C@]2(C)[C@H]3C(=O)C=C4[C@H]5C[C@@](C)(C(=O)O)CC[C@]5(C)CC[C@@]4(C)[C@]3(C)CC[C@@H]12 [18α-glycyrrhetinic acid]
% β-galactosidase positive cells ([1]; 2 µg/ml): 37.7%
whitening of melanocyte pellet ([2]; lower concentration (5 µg/ml)): whitening potential

quercetin caprylate
% β-galactosidase positive cells ([1]; 0,5 µg/ml): 36.6%
% β-galactosidase positive cells ([1]; 2 µg/ml): 32.3%
% β-galactosidase positive cells ([1]; 5 µg/ml): 47%
